Read-outs that look alike come from different tables or passages of the source.
[1] = female dogs, Group 4, 4/4 mg/kg/dose, Day 15
[2] = female dogs, Group 4, 4/4 mg/kg/dose, Day −4

Protocol: Animals were approximately 7 to 8 months of age with body weights ranging from 5.9 kg to 8.0 kg in females and 7.6 kg to 9.3 kg in males at dosing initiation.
Animals were randomly assigned to groups by Provantis based on body weight.
Detailed observations were conducted once during pretest for all animals (including spare animals), once prior to dosing on Day 1 for all study animals, and once weekly thereafter during the dosing phase (at 6+0.5 hours postdose). Detailed observations were also conducted once on the day of scheduled necropsies.
Parameters evaluated during the study included morbidity/mortality, clinical observations, body weights, food consumption, clinical pathology (hematology, serum chemistry, coagulation, and urinalysis), gross pathology, organ weights, and histopathological evaluation.

## CCC1(O)C(=O)OCc2c1cc1n(c2=O)Cc2cc3cc4c(cc3nc2-1)OCO4 (stereo not shown) [FL118]
Day 15 vs controls
  RET count percentage, max decrease, male: 30.65%
  leukocyte (WBC) counts, max decrease, male: 14.33%
  neutrophils counts (#NEUT), max decrease, male: 18.67%
  reticulocyte (RET) count absolute, max decrease, male: 33.4%
All treatment groups
  clinical signs: abnormal stool
Female dogs, Group 2, 2.5/[…], Day 15
  Cl (chloride), % Diff versus vehicle Group 1: 0%
Female dogs, Group 2, 2.5/[…], Day −4 (pre-dose)
  Cl (chloride), % Diff versus vehicle Group 1: 0%
Female dogs, Group 3, 3.3/[…], Day 15
  Cl (chloride), % Diff versus vehicle Group 1: −1%
Female dogs, Group 3, 3.3/[…], Day −4 (pre-dose)
  Cl (chloride), % Diff versus vehicle Group 1: −1%
[1]
  #EOS (eosinophils, absolute) % Diff vs Group 1: 6.45%
  #LYMP (lymphocytes, absolute) % Diff vs Group 1: −12.61%
  #NEUT % Diff: 32.40%
  #RET % Diff: 61.4%
  #RET Mean: 60.5 10^9/L
  % BASO (basophils, percent) % Diff vs Group 1: −46.7%
  % BASO, basophils, percent, Mean: 0.3%
  % EOS (eosinophils, percent) % Diff vs Group 1: −5.6%
  % EOS, eosinophils, percent, Mean: 2.2%
  % LYMP (lymphocytes, percent) % Diff vs Group 1: −21.4%
  % LYMP, lymphocytes, percent, Mean: 27.8%
  % MONO (monocytes, percent) % Diff vs Group 1: −18.3%
  % MONO, monocytes, percent, Mean: 5.5%
  % NEUT % Diff: 17.0%
  % NEUT Mean: 63.9%
  % RET % Diff: 47.72%
  ALB (albumin), % Diff versus vehicle Group 1: −1.6%
  ALP (alkaline phosphatase), % Diff versus vehicle Group 1: −19%
  ALP, alkaline phosphatase, Mean: 110 U/L
  ALT (alanine aminotransferase), % Diff versus vehicle Group 1: 24%
  ALT, alanine aminotransferase, Mean: 36 U/L
  AST (aspartate aminotransferase), % Diff versus vehicle Group 1: −7%
  AST, aspartate aminotransferase, Mean: 29 U/L
  BIL-T, total bilirubin, Mean: 1.60 µmol/L
  CK (creatine kinase), % Diff versus vehicle Group 1: −32%
  CK, creatine kinase, Mean: 200 U/L
  CRE (creatinine), % Diff versus vehicle Group 1: 12%
  CRE, creatinine, Mean: 54 µmol/L
  Ca, calcium, Mean: 2.53 mmol/L
  Cl (chloride), % Diff versus vehicle Group 1: 1%
  GGT (gamma-glutamyltransferase), % Diff versus vehicle Group 1: 0%
  GGT (gamma-glutamyltransferase), Mean: 3 U/L
  HCT % Diff: 9.2%
  HCT Mean: 43.8%
  HGB % Diff: 9.5%
  HGB Mean: 14.8 g/dL
  K (potassium), % Diff versus vehicle Group 1: −8.3%
  MCH Mean: 23.6 pg
  MCHC % Diff: −0.1%
  MCHC Mean: 33.9 g/dL
  MCV % Diff: −1.6%
  MCV Mean: 69.6 fL
  MPV (mean platelet volume) % Diff vs Group 1: −6.3%
  MPV, mean platelet volume, Mean: 12.3 fL
  P (inorganic phosphorus), % Diff versus vehicle Group 1: −11.74%
  PLT (platelet count) % Diff vs Group 1: −12%
  RBC % Diff: 11.06%
  RDW % Diff: −2.9%
  RDW Mean: 12.5%
  TCHO (total cholesterol), % Diff versus vehicle Group 1: −6.71%
  TCHO, total cholesterol, Mean: 3.52 mmol/L
  TG (triglyceride), % Diff versus vehicle Group 1: −27.70%
  TP (total protein), % Diff versus vehicle Group 1: 3.5%
  TP, total protein, Mean: 57.5 g/L
  UREA (urea), % Diff versus vehicle Group 1: −3.71%
  WBC % Diff: 12.58%
  sGLU (glucose), % Diff versus vehicle Group 1: 7.41%
  sGLU, glucose, Mean: 4.59 mmol/L
Female dogs, Group 4, 4/4 mg/kg/dose, Day 15, * p ≤ 0.05
  TG, triglyceride, Mean: 0.36* mmol/L
[2]
  #BASO (basophils, absolute) % Diff vs Group 1: 0.00%
  #EOS (eosinophils, absolute) % Diff vs Group 1: 18.46%
  #LYMP (lymphocytes, absolute) % Diff vs Group 1: −9.70%
  #MONO (monocytes, absolute) % Diff vs Group 1: 6.36%
  #NEUT % Diff: 45.57%
  #RET % Diff: −2.5%
  % BASO (basophils, percent) % Diff vs Group 1: −25.0%
  % BASO, basophils, percent, Mean: 0.2%
  % EOS (eosinophils, percent) % Diff vs Group 1: 4.5%
  % EOS, eosinophils, percent, Mean: 2.3%
  % LYMP (lymphocytes, percent) % Diff vs Group 1: −25.5%
  % LYMP, lymphocytes, percent, Mean: 24.4%
  % MONO (monocytes, percent) % Diff vs Group 1: −14.4%
  % MONO, monocytes, percent, Mean: 6.9%
  % NEUT % Diff: 17.0%
  % RET Mean: 0.71%
  HCT % Diff: 5.4%
  HCT Mean: 44.9%
  HGB % Diff: 7.3%
  HGB Mean: 15.1 g/dL

From patent publication US20250312469A1 (CANGET BIOTEKPHARMA, priority 2024, published 2025)
